Source: patent publication US20050053555A1, “Appetite control compositions and methods of use” (Crave Busters, LLC., priority 2003, published 2005)

Tested on: sweetness taste receptors of the tongue
Assay: blocking the sense of sweetness by topical delivery to mouth and tongue
Type: in vivo
Conditions: about 10 mg to about 80 mg glycyrrhizin delivered concurrently with gymnemic acid
Text: Without being bound to any particular theory of action, it is currently believed that the appetite control compositions according to the invention deliver a relatively small dose of an active ingredient, gymnemic acid, directly to the sweetness taste receptors of the tongue, which blocks the sense of sweetness and thereby produces appetite control.
Gymnema sylvestre is commonly called Gurmar. It is well known in the art as a “sugar blocker.” Gymnema sylvestre contains the bitter principle gymnemic acid, which is well known for its ability to bind to the sweetness taste receptors on the tongue and to sugar absorption sites in the gut. Formerly, Gymnema sylvestre and extracts standardized to deliver gymnemic acid have been incorporated into traditional dosage forms to take advantage of its ability to block the absorption of sugar from the gut. […]
The appetite control compositions according to the invention include Gymnema sylvestre herb or, preferably, an extract of Gymnema sylvestre herb designed to maximize the quantity of gymnemic acid it contains. […]
In some embodiments, the appetite control compositions according to the invention include Glycyrrhiza glabra root or, preferably, an extract of Glycyrrhiza glabra root designed to maximize the quantity of glycyrrhizin it contains. […]

CC1(C)[C@@H](O[C@H]2O[C@H](C(=O)O)[C@@H](O)[C@H](O)[C@H]2O[C@@H]2O[C@H](C(=O)O)[C@@H](O)[C@H](O)[C@H]2O)CC[C@]2(C)[C@H]3C(=O)C=C4[C@@H]5C[C@@](C)(C(=O)O)CC[C@]5(C)CC[C@@]4(C)[C@]3(C)CC[C@@H]12 [glycyrrhizin]
effect on quantity of gymnemic acid required to block the sense of sweetness for 1 to 2 hours: effectively reduces the quantity of gymnemic acid required
